One test concerns the target Carbonic anhydrase 9 (Homo sapiens, UniProt Q16790).
Test [1] addresses T1, Carbonic anhydrase 12 (Homo sapiens, UniProt O43570).
Description: Binding affinity to human CA12 assessed as inhibition constant
For test [2], the target named is T1, Carbonic anhydrase 12. This is another data set of the same source.
Description: Inhibition of human carbonic anhydrase 12 preincubated for 15 mins followed by substrate addition and measured after 30 mins by spectrophotometric method

This is an account of results in ChEMBL document CHEMBL5634115, “Exploring novel anticancer pyrazole benzenesulfonamides featuring tail approach strategy as carbonic anhydrase inhibitors” (Eur J Med Chem, 2023).

T1 sequence (O43570 whole entry): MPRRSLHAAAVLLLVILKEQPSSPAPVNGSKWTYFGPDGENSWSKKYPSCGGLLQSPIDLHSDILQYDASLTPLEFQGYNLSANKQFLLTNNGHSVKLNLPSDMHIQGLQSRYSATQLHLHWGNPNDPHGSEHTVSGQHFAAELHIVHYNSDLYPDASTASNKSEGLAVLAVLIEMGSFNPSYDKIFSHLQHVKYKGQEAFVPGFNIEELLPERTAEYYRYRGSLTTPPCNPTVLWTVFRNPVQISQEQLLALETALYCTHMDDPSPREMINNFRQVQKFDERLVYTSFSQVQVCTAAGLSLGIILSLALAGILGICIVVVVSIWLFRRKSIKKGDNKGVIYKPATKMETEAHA
Description for Carbonic anhydrase 9: Binding affinity to human CA9 assessed as inhibition constant

On to `CCOC(=O)c1cc(-c2ccc(C)cc2)n(-c2ccc(S(N)(=O)=O)cc2)n1`, for which the Ki – broadly, a dissociation constant, usually derived from enzyme kinetics or from competition with a known ligand – at Carbonic anhydrase 9 worked out at 176 nM.
Consider `NS(=O)(=O)c1ccc(C(=O)N/N=C/c2ccccc2O)cc1`, for which the Ki on Carbonic anhydrase 9 was found to be 18.9 nM; at Carbonic anhydrase 12 [1], 32.7 nM.
The corresponding values for `CCn1c(-c2cc(C(=O)O)[nH]n2)cc2ccccc21` are 7.79 nM and 7.78 nM.
In the case of `CCOC(=O)c1cc(-c2ccc([N+](=O)[O-])cc2)n(-c2ccc(S(N)(=O)=O)cc2)n1`, the Ki on Carbonic anhydrase 9 turned out to be 20.5 nM.
In the case of `Cc1ccc(-c2nn(-c3ccc(S(N)(=O)=O)cc3)cc2/C=N/Nc2ccc(S(N)(=O)=O)cc2)cc1`, the IC50 (usually the concentration that inhibits the measured activity by half) against Carbonic anhydrase 12 [2] is 144 nM.
Molecule `CCOC(=O)c1cc(-c2ccccc2)n(-c2ccc(S(N)(=O)=O)cc2)n1` yielded a Ki at Carbonic anhydrase 9 of 225 nM. This lies in the sub-micromolar range.
